The values below come from ChEMBL document CHEMBL1201862, “PubChem BioAssay data set” (2004).

Activity calls are given as the source filed them.

The target of assay [1] is FAD-linked sulfhydryl oxidase ALR (Homo sapiens, UniProt P55789). Put plainly: ALR-catalysed DTT oxidation blockers – biochemical, H2O2 detection, luminescence, cherry-pick, dose response (AID 493248).
Assay [2] deals with T1, Rac GTPase-activating protein 1 (Homo sapiens, UniProt Q9H0H5).
T1 sequence (Q9H0H5 whole entry): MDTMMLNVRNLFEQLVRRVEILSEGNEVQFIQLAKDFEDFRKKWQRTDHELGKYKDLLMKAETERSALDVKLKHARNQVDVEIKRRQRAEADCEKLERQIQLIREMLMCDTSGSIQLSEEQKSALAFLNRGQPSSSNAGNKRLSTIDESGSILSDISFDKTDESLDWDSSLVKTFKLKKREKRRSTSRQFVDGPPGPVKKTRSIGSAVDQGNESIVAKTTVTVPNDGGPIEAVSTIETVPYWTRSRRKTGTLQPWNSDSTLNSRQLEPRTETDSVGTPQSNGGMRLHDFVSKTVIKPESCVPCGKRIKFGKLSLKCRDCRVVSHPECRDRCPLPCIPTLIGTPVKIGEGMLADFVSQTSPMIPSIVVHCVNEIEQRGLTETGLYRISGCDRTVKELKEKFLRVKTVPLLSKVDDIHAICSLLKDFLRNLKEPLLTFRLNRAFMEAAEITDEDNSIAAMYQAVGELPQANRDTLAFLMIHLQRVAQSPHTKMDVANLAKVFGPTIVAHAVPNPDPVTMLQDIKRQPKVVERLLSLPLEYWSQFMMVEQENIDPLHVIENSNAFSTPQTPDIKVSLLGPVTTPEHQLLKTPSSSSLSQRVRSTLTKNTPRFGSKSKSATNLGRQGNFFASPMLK
Put plainly: blockers of MgcRacGAP-driven Rac1 GTP hydrolysis – biochemical, ADP Hunter fluorescence, primary and confirmatory, confirmation (AID 624330). It counts as functional.

Assay [3] is described as follows: Luminescence Cell-Based Dose Retest to Confirm Inhibitors of Cancer Stem Cells. [Related pubchem assays (depositor defined):AID2717, AID2721]. The format is functional. The settings on record: Homo sapiens.
Another assay relates to INS1. Briefly: INS-1E survival protection against cytokine death – cell-based, luminescence, retest, dose response (AID 449756).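 Further: cell death triggered by IL-1 beta plus TNF-alpha plus IFN-gamma mixture; protective hits raise ATP signal compared with cytokine alone wells.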 The format is functional. The note with it: Rattus norvegicus.
The target of assay [4] is T2, RNA-binding protein pos-1 (Caenorhabditis elegans, UniProt G5EF15).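 Further: purified POS-1 fused to maltose binding protein made in E. coli; potency of compounds blocking POS-1 binding to fluorescent RNA.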
T2 sequence (G5EF15 whole entry): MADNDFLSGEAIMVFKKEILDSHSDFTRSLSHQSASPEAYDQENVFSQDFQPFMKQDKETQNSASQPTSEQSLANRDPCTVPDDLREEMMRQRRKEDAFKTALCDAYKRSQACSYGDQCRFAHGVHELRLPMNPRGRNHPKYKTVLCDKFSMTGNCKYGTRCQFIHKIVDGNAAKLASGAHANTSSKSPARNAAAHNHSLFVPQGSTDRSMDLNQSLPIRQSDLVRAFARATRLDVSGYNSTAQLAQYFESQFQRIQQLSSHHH
Put plainly: disruptors of C. elegans POS-1 RNA interaction – biochemical, fluorescence polarization, dose response (AID 1964). (In fluorescence polarisation assays a small probe gives low polarisation when free and higher when bound to something large.)

The target of assay [5] is T3, Zinc finger protein mex-5 (Caenorhabditis elegans, UniProt Q9XUB2).
T3 sequence (Q9XUB2 whole entry): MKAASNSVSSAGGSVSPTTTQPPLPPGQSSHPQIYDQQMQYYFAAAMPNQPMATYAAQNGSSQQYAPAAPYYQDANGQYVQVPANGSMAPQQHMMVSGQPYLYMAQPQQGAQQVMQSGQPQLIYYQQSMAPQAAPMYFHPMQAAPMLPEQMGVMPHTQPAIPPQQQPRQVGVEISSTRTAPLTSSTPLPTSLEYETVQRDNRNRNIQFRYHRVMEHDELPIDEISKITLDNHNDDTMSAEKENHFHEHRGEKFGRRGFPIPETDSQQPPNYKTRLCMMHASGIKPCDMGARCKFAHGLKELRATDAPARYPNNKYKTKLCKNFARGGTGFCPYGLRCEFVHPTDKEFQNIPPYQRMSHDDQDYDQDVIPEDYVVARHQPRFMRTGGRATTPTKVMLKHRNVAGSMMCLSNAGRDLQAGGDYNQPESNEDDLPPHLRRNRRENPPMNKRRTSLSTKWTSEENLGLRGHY
Briefly: potency of MEX-5 RNA-binding blockers – biochemical, C. elegans, fluorescence polarization, dose response (AID 1960).

A further assay addresses Large T antigen (Simian virus 40, UniProt P03070). The format is functional, Betapolyomavirus macacae.
In assay [6] the test system is BJ. Briefly: BJ-TERT fibroblast viability loss – cell-based, RAS-independent, luminescence, dose response (AID 1933). The format is functional. The settings on record: Homo sapiens.
The test system of assay [7] is BJ. Briefly: cells. It counts as functional, cell-based. The settings on record: Homo sapiens.
Assay [8] relates to BJ. Briefly: BJ-TERT-LT-ST fibroblast viability loss – cell-based, RAS-independent, luminescence, dose response (AID 1935).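 Further: BJ fibroblasts immortalized with TERT plus LT and ST oncogenes.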 It counts as functional. The settings on record: Homo sapiens.
Assay [9] in a line: DRD fibroblast viability loss – cell-based, non-viral oncogenic, luminescence, dose response (AID 1934). The settings on record: Homo sapiens. The format is functional.
Assay [10] is described as follows: viability of uninfected HEp-2 cells – cell-based, HTS, cytotoxicity control for RSV inhibitor project, dose response (AID 2410). The settings on record: human respiratory syncytial virus. It counts as functional.

Chain of FAD-linked sulfhydryl oxidase ALR (P55789 whole entry): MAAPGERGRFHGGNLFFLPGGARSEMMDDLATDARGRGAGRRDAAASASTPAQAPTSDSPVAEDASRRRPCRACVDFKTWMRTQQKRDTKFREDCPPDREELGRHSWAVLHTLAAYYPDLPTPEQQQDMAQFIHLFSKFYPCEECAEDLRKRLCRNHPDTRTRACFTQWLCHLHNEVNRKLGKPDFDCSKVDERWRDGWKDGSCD
Chain of Large T antigen (P03070 whole entry): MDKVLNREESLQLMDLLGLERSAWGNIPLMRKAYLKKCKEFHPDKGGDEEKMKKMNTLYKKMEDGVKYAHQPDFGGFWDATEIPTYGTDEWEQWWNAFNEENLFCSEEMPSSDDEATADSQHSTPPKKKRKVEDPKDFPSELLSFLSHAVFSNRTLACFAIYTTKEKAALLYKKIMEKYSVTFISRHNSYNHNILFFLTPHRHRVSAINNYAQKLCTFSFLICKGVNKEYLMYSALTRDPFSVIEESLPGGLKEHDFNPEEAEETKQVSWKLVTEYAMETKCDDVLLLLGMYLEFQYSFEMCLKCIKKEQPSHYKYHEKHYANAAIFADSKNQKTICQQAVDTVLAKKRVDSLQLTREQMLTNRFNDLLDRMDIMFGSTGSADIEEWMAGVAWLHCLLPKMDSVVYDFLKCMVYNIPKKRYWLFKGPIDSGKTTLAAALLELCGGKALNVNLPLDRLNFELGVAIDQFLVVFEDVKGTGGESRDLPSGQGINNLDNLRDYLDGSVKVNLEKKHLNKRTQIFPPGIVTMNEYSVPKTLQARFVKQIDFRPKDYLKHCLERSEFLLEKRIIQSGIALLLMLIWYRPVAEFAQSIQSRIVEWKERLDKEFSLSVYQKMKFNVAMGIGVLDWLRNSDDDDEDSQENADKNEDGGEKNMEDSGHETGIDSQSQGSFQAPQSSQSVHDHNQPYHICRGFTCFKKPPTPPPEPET

Consider `COC(=O)c1ccc(CSc2nc3ccccc3c(=O)n2Cc2ccco2)o1`, for which the half-maximal activity concentration (AC50) (usually the concentration giving half of the maximal activity seen) in [1] was 4.51 µM (active).

For the molecule `COc1cc(-c2nc3cnccn3c2NC(C)(C)CC(C)(C)C)ccc1O`, the AC50 in assay [1] is 4.22 µM (active).

Take `Cc1cc(-c2nnc(S)n2/N=C/c2ccc(Cl)c([N+](=O)[O-])c2)[nH]n1`: in assay [1], the AC50 was 3.45 µM (active).

As for `COc1ccc(NC(=O)NS(=O)(=O)c2ccc(C)cc2)cc1OC`, the IC50 (as a rule, the concentration needed to halve the response being measured) in [2] is 36 µM (active).

On to `C=CCn1c(SCC(=O)Nc2ccc(N(C)C)cc2)nnc1-c1cccc(C)c1`, for which, in assay [2], the IC50 was 42.8 µM (active).

As for `O=C(C#Cc1ccccc1)Nc1cccc(F)c1`, the figures for the AC50 (in assay [3]; in [1]; with INS1) were 2.35 µM (active), 2 µM (active) and 8.05 µM (active), respectively.

Take `CSc1ccc(CN2CCC(N3CC(C)OC(C)C3)CC2)cc1` (stereo not given): the IC50 in assay [2] was 72.4 µM (active).

Turning to `COc1ccc(-c2cc(-c3nnc(S)n3-c3ccccc3OC)[nH]n2)cc1`, the AC50 in assay [1] is 41.1 µM (active).

Consider `COc1cc(/C=N/Nc2nc(O)nnc2C)ccc1O`, for which the EC50 (usually the midpoint of the concentration-response curve) was 56.8 µM (active) in assay [4] and 31.1 µM (active) in [5]. In addition, the IC50 on Large T antigen is 6.41 µM (active). Besides, the AC50 in assay [1] was 4.13 µM (active).

Consider `COc1cc(N=Nc2c(C)n(C)n(-c3ccccc3)c2=O)ccc1N`, for which the IC50 in assay [2] is 43.4 µM (active).

As for `COc1ccc(NC2CCCN(C(=O)CCc3cccc(F)c3)C2)cc1` (stereo not given), the IC50 in assay [2] is 74.6 µM (active).

Take `COC(=O)N1CCc2c(sc(NC(=O)C3=COCCO3)c2C#N)C1`: the EC50 with BJ [6] is 8.87 µM (inconclusive); in the assay with BJ [7] it was 48.9 µM (active); in the assay with BJ [8] it was 16.1 µM (active); in [9] it was 12.5 µM (active).

Consider `COc1cccc(-c2ncc3ccccn23)c1`, for which the CC50 (as a rule, the concentration at which the toxic effect on the cells reaches its halfway point) in [10] was 44.1 µM (active). Moreover, the IC50 in [2] is 136 µM (active).

For `Cc1cc(-c2cc(C)c(N)cc2C)c(C)cc1N`, the IC50 in assay [2] is 101 µM (active).

On to `NS(=O)(=O)c1ccc(CCNC(=O)CN2CCN(c3ccccc3O)CC2)cc1`, for which the AC50 in [1] is 3.94 µM (active).

As to `O=C(c1[nH]nc2c1CCC2)N1CCCC(Nc2cccc(F)c2)C1` (stereo not given), in assay [1], the AC50 is 19.5 µM (active).
